From US20140296153A1, “Oligodendrocyte Differentiation” (priority 2011, published 2014)

Assays:
SVZ cells = assay: TUNEL apoptosis assay in SVZ cell cultures; type: cell-based, mouse; conditions: for TUNEL-positive nuclei: 48 hours
Method: Six- to 8-day-old neurospheres were adhered for 48 hours onto poly-D-lysine-coated glass coverslips in SFM devoid of growth factors. Then, to evaluate proliferation/cell death and neuronal differentiation, the neurospheres were allowed to develop for 48 hours or 7 days at 37° C. in the absence or in the presence of hemopressin (100 nM or 1 μM, Proteimax, Cotia, Brazil) and the CB1R antagonist AM 251 (1 μM, Tocris, Ellisville, Mo., USA).
Cell apoptosis was evaluated by the terminal deoxynucleotidyl transferase dUTP nick-end labeling (TUNEL) assay which is a method that detects DNA fragmentation.
SVZ cells treated with Hp for 48 h, in serum free medium devoid of growth factor (differentiation conditions), were rinsed 3×10 min with 0.15 M PBS and permeabilized in 0.25% Triton X-100 for 30 min at RT. Cells were then incubated with terminal deoxynucleotidyl transferase buffer (0.25 U/μl terminal transferase), 6 μM biotinylated dUTP, pH 7.5)) (all from Roche, Basel, Switzerland) for 1 h at 37° C. in a humidified chamber, and then rinsed in TB buffer (300 mM NaCl and 30 mM sodium citrate) for 15 min and in PBS for 5 min. Incubation with Fluorescein was performed for 1 h and nuclei counterstaining and mounting were performed as described previously.
Fluorescence images were recorded using an LSM 510 Meta confocal microscope or an Axioskop 2 Plus fluorescence microscope (both from Carl Zeiss). In all experiments, measurements were performed in the border of SVZ neurospheres where migrating cells form a cell monolayer. […] Percentages of TUNEL or BrdU immunoreactive cells in SVZ cell cultures were calculated from cell counts in five independent microscopic fields in each coverslip with a x40 objective (approximately 200 cells per field). […] For SCCl experiments, the percentage of oligodendrocytic-like responding cells (with a Thromb/Hist ratio above 1.3) was calculated on the basis of one microscopic field per coverslip, containing approximately 100 cells (magnification, ×40).
The effect of Hp on cell death was evaluated after 48 hours of treatment with Hp.

Olig2 [1] = assay: Western blotting analysis of Olig2; type: cell-based, mouse; conditions: 7 days, n=8
Method: Western blotting analysis of Olig2 was performed from 6- to 8-days-old neurospheres that were plated onto six-well plates previously coated with poly-D-lysine, and that were allowed to adhere for 48 h in the presence of SFM, and treated in the absence (control) or in the presence of Hp and/or AM251 for 7 days. For the evaluation of Olig2 protein levels in control versus Hp-treated condition, the medium was renewed after 48 h. Seven days after the first treatment, the cells were washed with 0.15M phosphate-buffered saline (PBS) and harvested by scraping in the lysis buffer [0.15 M NaCl, 0.05 M Tris-base, 5 mM EGTA, 1% Triton X-100, 0.5% DOC, 0.1% SDS, 10 mM dithiothreitol (DTT), containing a protease inhibitor cocktail tablet (Roche Diagnostics GmbH, Germany), pH7.4 at 4° C.].
The supernatant was collected after centrifugation at 14 000 rpm for 10 min, at 4° C. Protein concentration was measured by the BCA method and samples were treated with SDS-PAGE sample buffer [6× concentrated: 350 mM Tris, 10% (w/v) SDS, 30% (v/v) glycerol, 0.6 M DTT, 0.06% (w/v) bromophenol blue], boiled 5 min at 95° C., and stored at −20° C. until use for Western blotting analysis. […]

Olig2 [2] = assay: Immunocytochemistry for Olig2; type: cell-based, mouse; conditions: Hp treatment
Method: Cells were fixed for 30 minutes in 4% paraformaldehyde in phosphate-buffered saline (PBS), permeabilized and blocked for non-specific binding sites for 1 h with 0.25% Triton X-100 (Sigma) and 3% bovine serum albumin (BSA, Sigma) dissolved in PBS. Cells were then subsequently incubated overnight at 4° C. with the following antibodies: rabbit polyclonal anti-CB1R (1:200, Proteimax), mouse monoclonal anti-nestin (1:200, Chemicon, Temecula, Calif., USA), mouse monoclonal anti-GFAP (1:500, Cell Signaling Technology, Danvers, Mass., USA) and rabbit polyclonal anti-Olig2 (1:200, Millipore, Billerica, Mass., USA). Thereafter, the cover slips were rinsed in PBS and incubated for 1 h at RT with the appropriate secondary antibodies: anti-rabbit IgG labeled with Alexa Fluor 488 (1:200) or anti-mouse IgG labeled with Alexa Fluor 594 (1:200) (both from Molecular Probes). After rinsing with PBS, cell preparations were incubated 5 min at RT with Hoechst 33342 (2 μg/mL, Molecular Probes) in PBS, for nuclear staining. Finally, the preparations were mounted using Dakocytomation fluorescent medium (Dakocytomation, Carpinteria, Calif., USA). Fluorescence images were recorded using a digital camera coupled to an Axioskop microscope (Carl Zeiss).

CB1R = CB1R (Homo sapiens, UniProt P21554); conditions: cited from earlier work
Sequence of CB1R (P21554 whole entry): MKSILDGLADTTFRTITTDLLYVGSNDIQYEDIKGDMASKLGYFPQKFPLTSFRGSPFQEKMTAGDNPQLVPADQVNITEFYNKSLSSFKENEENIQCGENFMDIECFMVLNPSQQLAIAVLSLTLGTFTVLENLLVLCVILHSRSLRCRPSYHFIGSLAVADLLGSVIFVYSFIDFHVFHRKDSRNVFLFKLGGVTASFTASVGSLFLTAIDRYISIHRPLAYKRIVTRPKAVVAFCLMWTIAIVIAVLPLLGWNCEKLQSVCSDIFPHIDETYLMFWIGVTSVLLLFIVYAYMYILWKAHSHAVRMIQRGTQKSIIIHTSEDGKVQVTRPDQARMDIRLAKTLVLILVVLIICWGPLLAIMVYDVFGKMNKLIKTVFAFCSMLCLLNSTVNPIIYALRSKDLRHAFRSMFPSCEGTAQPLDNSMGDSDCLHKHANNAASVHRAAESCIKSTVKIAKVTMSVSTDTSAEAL

SMILES: CC(C)C[C@H](NC(=O)[C@H](Cc1ccccc1)NC(=O)[C@H](CCCCN)NC(=O)[C@H](Cc1ccccc1)NC(=O)[C@H](CC(N)=O)NC(=O)[C@@H](NC(=O)[C@@H]1CCCN1)C(C)C)C(=O)N[C@@H](CO)C(=O)N[C@@H](Cc1cnc[nH]1)C(=O)O [Hp, PVNFKFLSH]
- toxicity to the cells (TUNEL) (SVZ cells; 48 hours of treatment): not toxic to the cells
- TUNEL-positive nuclei (SVZ cells; Hp 100 nM): 10.26±1.69
- TUNEL-positive nuclei (SVZ cells; Hp 1 μM): 13.25±1.56%
- Olig2 protein levels normalized to β-actin, relative to control (100%) (Olig2 [1]; Hp 100 nM): 136.9±10.94%
- Olig2 protein levels normalized to β-actin, relative to control (100%) (Olig2 [1]; Hp 1 μM): 158.7±23.62%
- number of Olig2-positive cells (Olig2 [2]): increased
- activity at CB1R cannabinoid receptors (CB1R): CB1R receptor selective antagonist
